Source: patent US10774085B2, “Method of treatment using substituted pyrazolo[1,5-A] pyrimidine compounds” (Array BioPharma Inc., priority 2008, dated 2020)

Biological target: histidine-tagged recombinant human TrkA, cytoplasmic domain (Homo sapiens (Human), UniProt P04629)
Experiment: TrkA ELISA Assay
Type: biochemical
Settings: 2.5 nM TrkA, 500 μM ATP; read-out: TrkA Elisa Enzyme IC50
Experimental: An enzyme-linked immunosorbant assay (ELISA) was used to assess TrkA kinase activity in the presence of inhibitors. Immulon 4HBX 384-well microtiter plates (Thermo part #8755) were coated with a 0.025 mg/mL solution of poly (Glu, Ala, Tyr; 6:3:1; Sigma P3899). Various concentrations of test compound, 2.5 nM TrkA (Invitrogen Corp., histidine-tagged recombinant human TrkA, cytoplasmic domain), and 500 μM ATP were incubated for 25 minutes at ambient temperature in the coated plates while shaking. The assay buffer consisted of 25 mM MOPS pH 7.5, 0.005% (v/v) Triton X-100 and 5 mM MgCl2. The reaction mixture was removed from the plate by washing with PBS containing 0.1% (v/v) Tween 20. The phosphorylated reaction product was detected using 0.2 μg/mL of a phosphotyrosine specific monoclonal antibody (clone PY20) conjugated to horseradish peroxidase in conjunction with the TMB Peroxidase Substrate System (KPL). After the addition of 1M phosphoric acid, the chromogenic substrate color intensity was quantitated via absorbance at 450 nm. IC50 values were calculated using either a 4 or 5-parameter logistic curve fit.

Chain of histidine-tagged recombinant human TrkA, cytoplasmic domain (P04629 440-796): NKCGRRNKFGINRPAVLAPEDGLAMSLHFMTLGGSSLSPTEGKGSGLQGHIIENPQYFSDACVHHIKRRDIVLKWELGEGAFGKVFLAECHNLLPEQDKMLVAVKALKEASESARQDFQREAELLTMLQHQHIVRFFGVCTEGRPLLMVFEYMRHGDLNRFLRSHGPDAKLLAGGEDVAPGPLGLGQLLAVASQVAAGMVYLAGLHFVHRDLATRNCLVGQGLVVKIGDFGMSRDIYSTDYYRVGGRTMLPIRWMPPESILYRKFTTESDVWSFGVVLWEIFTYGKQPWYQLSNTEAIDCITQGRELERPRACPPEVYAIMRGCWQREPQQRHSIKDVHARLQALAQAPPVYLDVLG

IC50: 0.0102 µM
Structure (SMILES): COc1ccc(F)cc1[C@H]1CCCN1c1ccn2ncc(NC(=O)N3CCC[C@H](O)C3)c2n1 [Example 91, (S)—N-(5-((R)-2-(5-fluoro-2-methoxyphenyl)pyrrolidin-1-yl)pyrazolo[1,5-a]pyrimidin-3-yl)-3-hydroxypiperidine-1-carboxamide]
